In patent US10806693B2, “Method for increasing lipolysis using a composition comprising bioactive Nelumbo nucifera (lotus) extract” (ISP Investments LLC, priority 2016, dated 2020):

Assay: Lipolysis: glycerol release from differentiated 3T3-L1 adipocytes
Assay type: cell-based
Conditions: 2 mM, twice a day for 48 hours
Procedure: This study aims to evaluate in vitro effect of Nelumbo nucifera (Lotus) Extract on lipolysis by evaluating glycerol release on preadipocytes. Lipolysis is the hydrolysis of triglycerides into glycerol and fatty acids. The amount of glycerol release will be proportional to both the amount of stored triglyceride and the degree of lipolysis 3T3-L1 pre-adipocytes (ATCC) were cultured in DMEM 4.5 g/L glucose (Lonza) supplemented with 10% of FBS (Lonza), 2 mM of L-Glutamine (Lonza) and 100 μg/ml of Primocin (InvivoGen). 2 days after the cells' confluence, differentiation into adipocytes was induced by adding 0.5 mM IBMX, 1 μM dexamethasone and 10 μg/ml insulin (Sigma) in the culture medium for 3 days. Afterwards, IBMX and dexamethasone were removed and only the insulin was maintained for 3 to 4 days; then, the insulin was also removed, and the cells were maintained in culture medium for another 3 days. After differentiation, cells were treated with Nelumbo nucifera (Lotus) Extract of example 1 diluted at 1/10.000 eme in culture medium, further noted as Lotus 0.01% (volume/volume) or with 2 mM caffeine positive control, twice a day for 48 hours. Then glycerol release was measured using Adipolysis Assay Kit (Cayman Chemical), according to the manufacturer's instructions.

Structure (SMILES): Cn1c(=O)c2c(ncn2C)n(C)c1=O [Caffeine, caffeine]
- Glycerol release (% of untreated): 131 % of untreated
